Assay results published in US20240199584A1, “KRAS INHIBITORS” (Bristol-Myers Squibb Company, priority 2022, published 2024).
Like-named read-outs stand apart in the source and are kept apart here.

Experiments:
[1] = target: T1, KRAS G12D (Homo sapiens, UniProt P01116, G12D); experiment: biochemical
[2] = target: T1, KRAS G12D; experiment: biochemical; remark: listed apart in the source

T1 sequence (P01116 1-188 isoform P01116-2 G12D): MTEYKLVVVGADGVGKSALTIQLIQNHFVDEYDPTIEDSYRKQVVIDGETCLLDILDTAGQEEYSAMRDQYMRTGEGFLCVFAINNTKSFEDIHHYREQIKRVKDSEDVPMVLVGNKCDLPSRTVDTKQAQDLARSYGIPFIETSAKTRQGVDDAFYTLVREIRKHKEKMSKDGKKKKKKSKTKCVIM

Row | IC50 [1] [nM] | IC50 [2] [nM] | Compound
1 | > 100000 | 2390 | C#Cc1c(F)ccc2cc(O)cc(-c3ccc4c(N5CCC(S(=O)(=O)N(C)C)CC5)nc(OC[C@@]56CCCN5C[C@H](F)C6)nc4c3F)c12 [Example 2-19, 1-(2-{[(2R,7aS)-2-fluoro-hexahydro-1H-pyrrolizin-7a-yl]methoxy}-7-(8-ethynyl-7-fluoro-3-hydroxynaphthalen-1-yl)-8-fluoroquinazolin-4-yl)-N,N-dimethylpiperidine-4-sulfonamide]
2 | 10 | 10 | C#Cc1c(F)ccc2cc(O)cc(-c3ncc4c(N5CCCOCC5)nc(OC[C@@]56C[C@@H](F)CN5CC5(CC5)C6)nc4c3F)c12 [Example 1-106, 4-(2-{[(6′R,7′aR)-6′-fluoro-hexahydrospiro [cyclopropane-1,2′-pyrrolizine]-7′a-yl]methoxy}-8-fluoro-4-(1,4-oxazepan-4-yl)pyrido[4,3-d]pyrimidin-7-yl)-5-ethynyl-6-fluoronaphthalen-2-ol]
3 | ≥ 100000 | 12800 | C#Cc1c(F)ccc2cc(O)cc(-c3ncc4c(N5CCCC(CO)C5)nc(OC[C@@]56CCCN5C[C@H](F)C6)nc4c3F)c12 (single isomer, unassigned) [Example 1-63]
4 |  | 6 | C#Cc1c(F)ccc2cc(O)cc(-c3nc(OC)c4c(N5CCOC6CC65)nc(OC[C@@]56CCCN5C[C@H](F)C6)nc4c3F)c12 (stereo partly drawn) [Example 9-40, 4-(4-(2-oxa-5-azabicyclo[4.1.0]heptan-5-yl)-8-fluoro-2-(((2R,7aS)-2-fluorotetrahydro-1H-pyrrolizin-7a(5H)-yl)methoxy)-5-methoxypyrido[4,3-d]pyrimidin-7-yl)-5-ethynyl-6-fluoronaphthalen-2-ol]
5 | 2620 | 2610 | C#Cc1c(F)ccc2cc(O)cc(-c3ccc4c(N5CC6C(C5)C6(C)C)nc(OC[C@@]56CCCN5C[C@H](F)C6)nc4c3F)c12 (stereo partly drawn) [Example 2-11, 4-(2-{[(2R,7aS)-2-fluoro-hexahydro-1H-pyrrolizin-7a-yl]methoxy}-4-{6,6-dimethyl-3-azabicyclo[3.1.0]hexan-3-yl}-8-fluoroquinazolin-7-yl)-5-ethynyl-6-fluoronaphthalen-2-ol]
6 | 680 |  | C#Cc1c(F)ccc2cc(O)cc(-c3ccc4c(N5CCCC(C#N)C5)nc(OC[C@@]56CCCN5C[C@H](F)C6)nc4c3F)c12 (single isomer, unassigned) [Example 2-41]
7 | 560 |  | C#Cc1c(F)ccc2cc(O)cc(-c3ncc4c(N5CCOCCC5C)nc(OC[C@]56CCC[C@H]5N(C)CCC6)nc4c3F)c12 (single isomer, unassigned) [Example 1-142]
8 | 2 |  | C#Cc1c(F)ccc2cc(O)cc(-c3ncc4c(N5CCCC(C#N)C5)nc(OC[C@@]56CCCN5C[C@H](F)C6)nc4c3F)c12 (single isomer, unassigned) [Example 1-23]
9 |  | 6 | C#Cc1c(F)ccc2cc(O)cc(-c3nc(OC)c4c(N5CCC[C@](O)(CF)C5)nc(OC[C@]56CCC[C@H]5N(C)CCC6)nc4c3F)c12 [Example 9-26, (R)-1-(7-(8-ethynyl-7-fluoro-3-hydroxynaphthalen-1-yl)-8-fluoro-5-methoxy-2-(((4aS,7aR)-1-methyloctahydro-4aH-cyclopenta[b]pyridin-4a-yl)methoxy)pyrido[4,3-d]pyrimidin-4-yl)-3-(fluoromethyl)piperidin-3-ol]
10 | 190 |  | C#Cc1c(F)ccc2cc(O)cc(-c3ncc4c(N5CCOCCC5C)nc(OC[C@]56CCC[C@H]5N(C)CCC6)nc4c3F)c12 (stereo partly drawn) [Example 1-93, 4-(2-{[(4aS,7aR)-1-methyl-octahydro-1H-cyclopenta [b]pyridin-4a-yl]methoxy}-8-fluoro-4-(5-methyl-1,4-oxazepan-4-yl)pyrido[4,3-d]pyrimidin-7-yl)-5-ethynyl-6-fluoronaphthalen-2-ol]
